The values that follow come from PMC8895377, “In Vivo Targeting Replication Protein A for Cancer Therapy” (Frontiers in Oncology, 2022).

The test has as its system A549 adenocarcinoma xenografts. Description: A549 xenograft efficacy. In kind it is in vivo, mice. An excerpt:
To assess anticancer efficacy, the hind flanks of 60 8–10-week-old Nod SCID gamma (NSG) mice were implanted with the indicated cells (~2 × 10^6) in Matrigel. Tumor volumes were monitored by electronic caliper measurement [tumor volumes = length × (perpendicular width)^2 × 0.5]. NSG studies were approved by the Institutional Animal Care and Use Committee at Indiana University School of Medicine. Male NSG (NOD‐scid/IL2Rg^null) mice (In Vivo Therapeutics Core Facility, IU Simon Comprehensive Cancer Center, Indianapolis, IN, USA) were used and housed in a pathogen‐free facility at IUSM LARC. Mice with tumors of approximately 100 mm^3 were randomized into individual treatment arms. The indicated RPAi was formulated and administered via intraperitoneal injection (IP) at the indicated times. Tumor volumes were monitored biweekly as indicated, and the results are presented as the average tumor volume ± standard error of the mean for each group. […]
Figure 8 In vivo analysis of anticancer activity of 329. (A) Anticancer activity was assessed in human H460 NCSLC tumor xenografts in NOD/SCID mice. Mice were implanted subcutaneously on day 1 with H460 NSCLC cells, tumors were measured by calipers, and mice assigned randomly to treatment arms. […] (C) Tumor weight from A549 cells was determined on day 32. […]

For the compound `CCOc1ccc2cc(C3CC(c4ccc(I)cc4)=NN3C(=O)CCCC(=O)NCCCN3CCOCC3)c(Cl)nc2c1` (centres unmarked) [compound 329], where the note is “40 mg/kg IP once daily from day 11, optimized formulation”, the tumor growth entry is on record as “significant reduction in tumor growth”. Moreover, the terminal tumor weight entry (40 mg/kg IP, day 32) is “significant smaller tumors”.
